The text below walks through data of patent US20260217652A1, “PHENYL-SUBSTITUTED HETEROARYL COMPOUND AND PHARMACEUTICAL COMPOSITION COMPRISING SAME, PREPARATION METHOD THEREFOR AND USE THEREOF” (SHANGHAI MEIYUE BIOTECH DEVELOPMENT CO., LTD., priority 2023, published 2026).

A word on the clearance: it is a measure of how efficiently the substance is removed, as volume per time. In general, Vd refers to the apparent volume that relates the amount in the body to the concentration in plasma or blood. One may read the bioavailability as dose-corrected exposure relative to a reference, in per cent.

Molecules are shown by their SMILES. Where two headings read alike, the source gives them in different places.

The target in data set [1] is T1, p38 MAPK/MK2 (Homo sapiens, UniProt Q16539).
T1 construct: purchased Carna (p38α); Abcam (MK2) 04-152; 79910
The data set is described as follows: In vitro activity assay of p38 MAPK/MK2 (Z-LYTE kinase assay kit). The class given is biochemical. Conditions: active p38α, inactive MK2, Ser/Thr 4; 1-hour reaction at 20° C. The protocol: The inhibitory effect of the compound on p38 MAPK/MK2 was evaluated using the Z-LYTE kinase assay kit (Thermo, PV3177). The test compound was dissolved in DMSO to obtain a 10 mM stock solution and stored at −20° C. for future use. The initial concentration of the compound was […], with 1% DMSO, 5-fold serial dilution, 8 concentrations, and duplicate wells. […] After a 1-hour reaction at 20° C., Development Reagent A diluted 2048-fold was added to each well, followed by incubation at room temperature for 1 hour. The reaction was terminated by adding 5 μL of stop buffer, and the plate was read using a microplate reader (Ex. 400 nm, Em. 445 nm; Ex. 400 nm, Em. 520 nm). The concentration-effect curve was fitted using GraphPad Prism 8 software, and the compound concentration resulting in 50% inhibition, IC50, was calculated.

Data set [2] has as its system TNF-α in human PBMC cells. The data set is described as follows: In vitro TNF-α activity assay in human PBMC cell supernatant (LPS, ELISA). The class given is cell-based. As to conditions: LPS 100 ng/mL, read-out: p38 MAPK/TNF-α IC50. The protocol: The inhibitory effect of the compound on TNF-α in the supernatant of human PBMC cells was evaluated using an ELISA detection kit (Beyotime, PI518). The test compound was dissolved in DMSO to obtain a 10 mM stock solution and stored at −20° C. for future use. The initial concentration of the compound was […], followed by 5-fold serial dilution to obtain 6 concentrations. Cells were plated in duplicate, and ELISA was performed in single wells. The final concentration of DMSO was 0.4%. Alternatively, the initial concentration of the compound, dilution factor, number of concentration gradients, and replicates could be adjusted based on the specific screening conditions.
Fresh human peripheral blood mononuclear cells (PBMCs) (Sailybio) were seeded at a density of 2×10^5 cells per well in a 96-well plate (Corning, 3599), with each well containing 100 μL of RPMI-1640 (Gibco #A1049101)+10% FBS (Gibco, 10099141C), and incubated overnight at 37° C. under 5% CO2. Test compounds were added to the 96-well culture plate at a volume of 25 μL per well. After 1 hour, 5 μL of LPS was added to achieve a final concentration of 100 ng/mL. No LPS and compound were added to the negative control wells, and no compound was added to the positive control wells. The mixture was further incubated for 24 hours at 37° C. under 5% CO2. Subsequently, the cell culture supernatant was collected by centrifugation at 500 rcf for 8 minutes. The concentration of TNF-α was measured according to the operation manual of the ELISA kit. The concentration-effect curve was fitted using GraphPad Prism 8 software, and the compound concentration resulting in 50% inhibition, IC50, was calculated.
(In an ELISA, binding on a coated surface is turned into a signal by an enzyme label.)

A short description of data set [3]: Pharmacokinetic evaluation in mice. The class given is in vivo. As to conditions: mouse, plasma; for AUC(0-t): read-out: Area under curve AUC0-24 h; for half-life: read-out: Half-life T1/2 (converted). The procedure:
The compound was weighed and dissolved in a mixed solvent of DMAC: Solutol: PBS (1:1:8. After intravenous/gastric administration to mice, whole blood ([…]) was collected at 0.083, 0.25, 0.5, 1, 2, 4, 7, and 24 hours. The samples were anticoagulated with EDTA-K2, immediately centrifuged at 4000 rpm for 5 minutes at 4° C., and the supernatant was frozen in a −80° C. refrigerator. Plasma sample processing: The samples were precipitated with an internal standard-containing CH3CN precipitant, followed by centrifugation at 12700 rpm for 10 min. The supernatant was collected and analyzed by LC-MS/MS (AB Triple Quard 5500) to obtain the plasma drug concentration. The parameters were calculated using a non-compartmental model in Winnolin version 8.1.

Where [4] appears, read: intravenous injection group 1 mg/kg.
Setting [5] is: po, intragastric administration group 5 mg/kg.

T1 sequence (Q16539 whole entry): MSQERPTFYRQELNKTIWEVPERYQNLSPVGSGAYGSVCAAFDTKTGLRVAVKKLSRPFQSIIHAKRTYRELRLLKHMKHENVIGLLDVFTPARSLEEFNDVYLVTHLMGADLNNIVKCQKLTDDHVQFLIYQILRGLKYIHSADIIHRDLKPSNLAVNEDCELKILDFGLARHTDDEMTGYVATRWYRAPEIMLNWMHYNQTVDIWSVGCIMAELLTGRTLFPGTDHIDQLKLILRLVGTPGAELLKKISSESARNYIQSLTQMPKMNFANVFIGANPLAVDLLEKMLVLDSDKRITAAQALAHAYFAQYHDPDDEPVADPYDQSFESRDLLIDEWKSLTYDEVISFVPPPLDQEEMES
T1 sequence (P49137 whole entry partner): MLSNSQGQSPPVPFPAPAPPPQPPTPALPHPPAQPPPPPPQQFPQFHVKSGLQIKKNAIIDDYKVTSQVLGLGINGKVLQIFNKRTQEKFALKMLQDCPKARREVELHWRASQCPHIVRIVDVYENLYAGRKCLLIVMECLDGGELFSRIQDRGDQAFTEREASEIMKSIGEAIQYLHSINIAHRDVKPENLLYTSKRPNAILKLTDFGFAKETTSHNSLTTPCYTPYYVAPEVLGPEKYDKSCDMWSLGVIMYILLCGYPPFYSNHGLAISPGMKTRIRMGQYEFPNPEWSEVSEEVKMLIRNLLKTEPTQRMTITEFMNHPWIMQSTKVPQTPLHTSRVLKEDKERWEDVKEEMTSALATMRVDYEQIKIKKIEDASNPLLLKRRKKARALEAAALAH

With `CNC(=O)c1cccc(-c2cc(-n3c(C)cc(OCc4ncc(F)cc4F)c(Cl)c3=O)c(C)cn2)c1F` [Compound 20], the IC50 in data set [1] came to 1.03 nM; in data set [2] (24 hours), 8.68 nM.
As for `Cc1cnc(-c2cccc(S(C)(=O)=O)c2)c(F)c1-n1c(C)cc(OCc2ncc(F)cc2F)c(Cl)c1=O` [Compound 33-P1], the AUC(0-t) in data set [3] (setting [4]) was determined as 1580 ng·h/mL; in data set [3] (setting [5]), 2800 ng·h/mL. In addition, the clearance in data set [3] (intravenous injection group 1 mg/kg, read-out: Clearance CL (converted)) is 10.8 mL/min/kg. Moreover, the half-life was 0.98 h in data set [3] (setting [4]) and 1.99 h in data set [3] (setting [5]). Further, the C0 in data set [3] (intravenous injection group 1 mg/kg, read-out: Initial concentration C0) was 3200 ng/mL. In addition, in data set [3] (intravenous injection group 1 mg/kg, read-out: Volume of distribution Vd), the Vd is 0.32 L/kg. The bioavailability in data set [3] (po, intragastric administration group 5 mg/kg, read-out: Bioavailability F %) was found to be 36.9%. Further, in data set [3] (po, intragastric administration group 5 mg/kg, read-out: Maximum concentration Cmax), the Cmax worked out at 3670 ng/mL. The IC50 in data set [1] was found to be 0.056 nM; in data set [2] (Homo sapiens, PBMC, 24 h) it was 2.93 nM.
`Cc1cnc(-c2cccc([C@](C)(O)CO)c2F)cc1-n1c(C)cc(OCc2ncc(F)cc2F)c(Cl)c1=O` [Compound 35-P2] yielded an IC50 in data set [1] of 0.71 nM.
As to `Cc1cnc(-c2cccc(C(C)(O)CO)c2F)cc1-n1c(C)cc(OCc2ncc(F)cc2F)c(Cl)c1=O` (stereo not drawn) [Compound 35], in data set [1], the IC50 amounted to 2.39 nM.
With `Cc1cnc(-c2cccc([C@](C)(O)CO)c2Cl)cc1-n1c(C)cc(OCc2ncc(F)cc2F)c(Cl)c1=O` [Compound 37-1], the IC50 in data set [1] stood at 4.66 nM.
`Cc1ccc(-c2ncc(C)c(-n3c(C)cc(OCc4ncc(F)cc4F)c(Cl)c3=O)c2F)cc1[C@@](C)(O)CO` [Compound 52-P1] had an IC50 in data set [1] of 0.12 nM.
Still for that read-out and setting: then `Cc1cnc(-c2ccc(Cl)c([C@](C)(O)CO)c2)c(F)c1-n1c(C)cc(OCc2ncc(F)cc2F)c(Cl)c1=O` [Compound 53-1], with 1.2 nM; and `Cc1cnc(-c2ccc(Cl)c([C@@](C)(O)CO)c2)c(F)c1-n1c(C)cc(OCc2ncc(F)cc2F)c(Cl)c1=O` [Compound 53-2], with 3.02 nM.
`Cc1cnc(-c2cccc([C@](C)(O)CO)c2Cl)c(F)c1-n1c(C)cc(OCc2ncc(F)cc2F)c(Cl)c1=O` [Compound 62-P1]: the IC50 in data set [1] was 0.35 nM.
The same measure, in the same setting: with `Cc1cnc(-c2cccc([C@@](C)(O)CO)c2Cl)c(F)c1-n1c(C)cc(OCc2ncc(F)cc2F)c(Cl)c1=O` [Compound 62-P3] the figure was 0.058 nM; with `Cc1cnc(-c2cccc([C@@](C)(O)CO)c2)cc1-n1c(C)cc(OCc2ncc(F)cc2F)c(Cl)c1=O` [Compound 87-P1], 8.54 nM; with `Cc1cnc(-c2cccc(C(C)(C)O)c2F)cc1-n1c(C)cc(OCc2ncc(F)cc2F)c(Cl)c1=O` [Compound 101], 0.93 nM.
The same measure, in the same setting: with `Cc1cnc(-c2cccc(C(C)(C)O)c2O)cc1-n1c(C)cc(OCc2ncc(F)cc2F)c(Cl)c1=O` [Compound 102] the figure was 0.15 nM.
On the same count and under the same terms, then `Cc1cnc(-c2cc([C@@](C)(O)CO)ccc2F)c(F)c1-n1c(C)cc(OCc2ncc(F)cc2F)c(Cl)c1=O` [Compound 106-P1], with 7.73 nM; and `Cc1cnc(-c2cc([C@@](C)(O)CO)ccc2Cl)c(F)c1-n1c(C)cc(OCc2ncc(F)cc2F)c(Cl)c1=O` [Compound 107-P1], with 4.99 nM.
Consider `Cc1cnc(-c2cc(F)cc([C@](C)(O)CO)c2F)cc1-n1c(C)cc(OCc2ncc(F)cc2F)c(Cl)c1=O` [Compound 110-1], for which the IC50 in data set [1] turned out to be 1.94 nM.
Still for that read-out and setting: then `Cc1cnc(-c2cc(F)cc([C@@](C)(O)CO)c2F)cc1-n1c(C)cc(OCc2ncc(F)cc2F)c(Cl)c1=O` [Compound 110-P1], with 0.7 nM.
Same read-out and setting: with `Cc1cnc(-c2ccc3c(c2)C(C)(C)NC3=O)c(F)c1-n1c(C)cc(OCc2ncc(F)cc2F)c(Cl)c1=O` [Compound 129] the figure was 19.9 nM.
In data set [1], `Cc1cnc(-c2ccc3c(c2F)C(C)(C)NC3=O)cc1-n1c(C)cc(OCc2ncc(F)cc2F)c(Cl)c1=O` [Compound 134] showed an IC50 of 39.9 nM.
Same read-out and setting: then `Cc1cnc(-c2cccc(C3(O)CC3)c2F)cc1-n1c(C)cc(OCc2ncc(F)cc2F)c(Cl)c1=O` [Compound 135], with 13 nM; and `Cc1cnc(-c2cccc(C3(O)CC3)c2)c(F)c1-n1c(C)cc(OCc2ncc(F)cc2F)c(Cl)c1=O` [Compound 136], with 26.2 nM.
Turning to `Cc1cnc(-c2cccc(C(C)(C)CO)c2F)cc1-n1c(C)cc(OCc2ncc(F)cc2F)c(Cl)c1=O` [Compound 137], the IC50 in data set [1] was found to be 11.7 nM; in data set [2] (Homo sapiens, PBMC, 24 h), 0.84 nM.
As for `Cc1cnc(-c2ccc(F)c(C(C)(O)C(=O)O)c2)c(F)c1-n1c(C)cc(OCc2ncc(F)cc2F)c(Cl)c1=O` (stereo not drawn) [Compound 138-1], in data set [1], the IC50 worked out at 1.21 nM.
In data set [1], `CNCC(C)(O)c1cc(-c2ncc(C)c(-n3c(C)cc(OCc4ncc(F)cc4F)c(Cl)c3=O)c2F)ccc1F` (stereo not drawn) [Compound 139] came in with an IC50 of 53 nM.
On the same count and under the same terms, with `Cc1cc(OCc2ncc(F)cc2F)c(Cl)c(=O)n1-c1ccnc(-c2ccc(F)c(C(C)(C)O)c2F)c1` [Compound 142] the figure was 3.37 nM; with `Cc1cc(OCc2ncc(F)cc2F)c(Cl)c(=O)n1-c1ccnc(-c2cccc([C@@](C)(O)CO)c2F)c1` [Compound 143], 18.1 nM; with `Cc1cc(OCc2ncc(F)cc2F)c(Cl)c(=O)n1-c1ccnc(-c2ccc(F)c([C@@](C)(O)CO)c2F)c1` [Compound 144], 12.6 nM.
On the same count and under the same terms, with `CC[C@](O)(CO)c1cccc(-c2cc(-n3c(C)cc(OCc4ncc(F)cc4F)c(Cl)c3=O)c(C)cn2)c1F` [Compound 147] the figure was 7.94 nM; with `COC[C@](C)(O)c1cccc(-c2cc(-n3c(C)cc(OCc4ncc(F)cc4F)c(Cl)c3=O)c(C)cn2)c1F` [Compound 148-P1], 15.9 nM; with `CNCC(C)(O)c1cccc(-c2cc(-n3c(C)cc(OCc4ncc(F)cc4F)c(Cl)c3=O)c(C)cn2)c1F` (stereo not drawn) [Compound 150], 8.59 nM.
For `Cc1cnc(-c2cccc([C@@H](O)CO)c2F)cc1-n1c(C)cc(OCc2ncc(F)cc2F)c(Cl)c1=O` [Compound 151-P1], the IC50 in data set [1] was 1.56 nM; in data set [2] (Homo sapiens, PBMC, 24 h), 12.9 nM.
As to `COc1cnc(-c2cccc([C@@](C)(O)CO)c2F)cc1-n1c(C)cc(OCc2ncc(F)cc2F)c(Cl)c1=O` [Compound 154], the IC50 in data set [1] amounted to 20.6 nM.
The same measure, in the same setting: then `COc1cnc(-c2cccc(C(C)(C)O)c2F)cc1-n1c(C)cc(OCc2ncc(F)cc2F)c(Cl)c1=O` [Compound 155], with 3.49 nM.
Still for that read-out and setting: with `Cc1cc(OCc2ncc(F)cc2F)c(Cl)c(=O)n1-c1ccnc(-c2cccc(C3(CO)CC3)c2F)c1` [Compound 156] the figure was 0.336 nM.
As to `Cc1cnc(-c2ccnc(C(C)(C)O)n2)cc1-n1c(C)cc(OCc2ncc(F)cc2F)c(Cl)c1=O` [Compound C, reference compound], the IC50 in data set [2] (Homo sapiens, PBMC, 24 h) stood at 26.4 nM.
